Experimental data: the supplement of paper PMC11061612

Tests used:
Experiment in all cases: Bliss excess, mean over the matrix (fraction); higher = more synergy
[1] = test system: EFO-21 (Ovarian Carcinoma)
In short: (§1)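 After 24 hours at 37°C and 5% CO2 in 1536-well plates, cells in DMEM/F12 or RPMI plus 10% FBS received two-drug dose matrices for 72 hours. Viability came from CellTiter-Glo 2.0 luminescence and was scaled as inhibition, anchored at 0 by vehicle wells and at 1 by blank wells. Combination Emax is taken as the second-highest inhibition in the matrix, and Bliss excess as the observed combination effect less EA + EB − EA·EB, with EA and EB the single-agent effects.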

[2] = test system: HAL-01 (B-Lymphoblastic Leukemia)
In short: as §1

[3] = test system: MOG-G-UVW (Low Grade Glioma)
In short: as §1

[4] = test system: NCI-H1993 (Lung Adenocarcinoma)
In short: as §1

[5] = test system: KGN (Other Solid Carcinomas)
In short: as §1

[6] = test system: ML-2 (Acute Myeloid Leukemia)
In short: as §1

[7] = test system: SW982 (Other Solid Carcinomas)
In short: as §1

SK-N-AS (Neuroblastoma) = test system: SK-N-AS (Neuroblastoma)
In short: as §1

[8] = test system: MDA-MB-453 (Breast Carcinoma)
In short: as §1

COLO-679 (Melanoma) = test system: COLO-679 (Melanoma)
In short: as §1

[9] = test system: Mo-T (Other Blood Carcinomas)
In short: as §1

| Compound | Bliss excess [1] | Bliss excess [2] | Bliss excess [3] | Bliss excess [4] | Bliss excess [5] | Bliss excess [6] | Bliss excess [7] | Bliss excess (SK-N-AS (Neuroblastoma)) | Bliss excess [8] | Bliss excess (COLO-679 (Melanoma)) | Bliss excess [9] |
| --- | --- | --- | --- | --- | --- | --- | --- | --- | --- | --- | --- |
| Cc1c2c(nn1C)CSCc1cc(n(C)n1)CSc1cc(c3ccccc3c1)OCCCc1c(C(=O)O)n(C)c3c-2c(Cl)ccc13 [AZD5991] + CC(=O)O[C@H]1C(=O)[C@@]2(C)[C@H]([C@H](OC(=O)c3ccccc3)[C@]3(O)C[C@H](OC(=O)[C@H](O)[C@@H](NC(=O)c4ccccc4)c4ccccc4)C(C)=C1C3(C)C)[C@]1(OC(C)=O)CO[C@@H]1C[C@@H]2O [Paclitaxel] (first compound max 1 µM, 7x7, partner max 3 µM) | 0.0151 | -0.0179 | 0.0217 | -0.037 | 0.0025 | 0.0157 | -0.0039 | -0.0065 | 0.231 | 0.0314 | -0.0521 |
| C=CCn1c(=O)c2cnc(Nc3ccc(N4CCN(C)CC4)cc3)nc2n1-c1cccc(C(C)(C)O)n1 [AZD1775] + Nc1ccn([C@@H]2O[C@H](CO)[C@@H](O)C2(F)F)c(=O)n1 [Gemcitabine] (first compound max 1 µM, partner max 0.3 µM) | -0.0653 | -0.0026 | 0.0183 | -0.0021 | 0.0009 | 0.0482 | -0.0248 | -0.0254 | -0.0309 | -0.067 | -0.0204 |
| O=C(c1cc(Cc2n[nH]c(=O)c3ccccc23)ccc1F)N1CCN(C(=O)C2CC2)CC1 [Olaparib] + CN(CC[C@H](CSC1=CC=CC=C1)NC2=C(C=C(C=C2)S(=O)(=O)NC(=O)C3=CC=C(C=C3)N4CCC(CC4)[C@H](C5=CC=CC=C5C6=CC=C(C=C6)Cl)O)S(=O)(=O)C(F)(F)F)CCO [AZD4320] (first compound max 10 µM, 7x7, partner max 1 µM) | -0.0415 | 0.0353 | -0.0009 | -0.0405 | -0.0153 | 0.0877 | 0.0389 | -0.0291 | -0.0342 | -0.0667 | -0.0065 |
| C[C@@H]1COCCN1c1cc(C2([S@](C)(=N)=O)CC2)nc(-c2ccnc3[nH]ccc23)n1 [AZD6738] + Nc1ccn([C@@H]2O[C@H](CO)[C@@H](O)C2(F)F)c(=O)n1 [Gemcitabine] (first compound max 10 µM, 7x7, partner max 0.3 µM) | 0.0847 | -0.0031 | 0.0856 | -0.0098 | 0.0065 | 0.108 | 0.0352 | 0.0469 | -0.0251 | -0.0611 | 0.002 |
| C[C@@H](Nc1cc(F)cc(F)c1)c1cc(C(=O)N(C)C)cc2c(=O)cc(N3CCOCC3)oc12 [AZD8186] + C1CN(CCC1(C(=O)N[C@@H](CCO)C2=CC=C(C=C2)Cl)N)C3=NC=NC4=C3C=CN4 [AZD5363] (first compound max 10 µM, 7x7, partner max 10 µM) | -0.0376 | -0.0657 | -0.0364 | 0.0154 | 0.0547 | -0.0217 | -0.0763 | -0.0294 | 0.0219 | -0.12 | -0.0393 |
| C[C@@H]1COCCN1c1cc(C2([S@](C)(=N)=O)CC2)nc(-c2ccnc3[nH]ccc23)n1 [AZD6738] + C1CC(C1)(C(=O)[O-])C(=O)[O-].N.N.[Pt+2] [Carboplatin] (first compound max 10 µM, 7x7, partner max 10 µM) | -0.0606 | -0.0435 | -0.0044 | -0.0211 | -0.0084 | -0.0111 | -0.0453 | -0.0538 | -0.0327 | -0.0944 | -0.0272 |
| Cc1c2c(nn1C)CSCc1cc(n(C)n1)CSc1cc(c3ccccc3c1)OCCCc1c(C(=O)O)n(C)c3c-2c(Cl)ccc13 [AZD5991] + Nc1ccn([C@@H]2O[C@H](CO)[C@@H](O)C2(F)F)c(=O)n1 [Gemcitabine] (first compound max 1 µM, 7x7, partner max 0.3 µM) | -0.0204 | 0.0025 | 0.0085 | -0.0064 | -0.0457 | 0.0116 | -0.0594 | 0.0183 | 0.0145 | -0.0703 | -0.0226 |
| C[C@@H](Oc1cc(-c2cnn(C3CCNCC3)c2)cnc1N)c1c(Cl)ccc(F)c1Cl [Crizotinib] + CC1=C(C(=CC=C1)Cl)NC(=O)C2=CN=C(S2)NC3=CC(=NC(=N3)C)N4CCN(CC4)CCO [Dasatinib] (first compound max 10 µM, 7x7, partner max 2 µM) | 0.0054 | -0.0172 | 0.182 | -0.0147 | -0.0204 | -0.0165 | 0.0386 | -0.0164 | -0.0494 | -0.0604 | -0.0588 |
| O=C(c1cc(Cc2n[nH]c(=O)c3ccccc23)ccc1F)N1CCN(C(=O)C2CC2)CC1 [Olaparib] + Cc1c2c(nn1C)CSCc1cc(n(C)n1)CSc1cc(c3ccccc3c1)OCCCc1c(C(=O)O)n(C)c3c-2c(Cl)ccc13 [AZD5991] (first compound max 10 µM, 7x7, partner max 1 µM) | -0.0533 | -0.0229 | -0.0125 | -0.0275 | -0.0651 | 0.0318 | -0.0011 | -0.0347 | -0.0038 | -0.0555 | -0.0492 |
